# Source: ChEMBL document CHEMBL5579794, “Improved synthesis and evaluation of preclinical pharmacodynamic parameters of a new monocyclic β-lactam DPI-2016” (Bioorg Med Chem Lett, 2024)
# Tests used:
# Pseudomonas aeruginosa [1] = assay: Antibacterial activity against Pseudomonas aeruginosa infected in BalbC mouse model of Septicaemia infection assessed as survival rate at 64 mg/kg administration starting at 0.5 to 2 hrs post infection and measured after 1 day relative to control; format: functional; settings: 24 h
# Pseudomonas aeruginosa [2] = assay: Antibacterial activity against Pseudomonas aeruginosa infected in BalbC mouse model of Septicaemia infection assessed as survival rate at 64 mg/kg administration starting at 0.5 to 2 hrs post infection and measured after 2 days relative to control; format: functional; settings: 48 h, time 2 day
# Pseudomonas aeruginosa [3] = assay: Antibacterial activity against Pseudomonas aeruginosa infected in BalbC mouse model of Septicaemia infection assessed as survival rate at 64 mg/kg administration starting at 0.5 to 2 hrs post infection and measured after 3 days relative to control; format: functional; settings: 72 h, time 3 day
# Pseudomonas aeruginosa [4] = assay: Antibacterial activity against Pseudomonas aeruginosa infected in BalbC mouse model of Septicaemia infection assessed as survival rate at 64 mg/kg administration starting at 0.5 to 2 hrs post infection and measured after 4 days relative to control; format: functional; settings: 96 h, time 4 day
# Pseudomonas aeruginosa [5] = assay: Antibacterial activity against Pseudomonas aeruginosa infected in BalbC mouse model of Septicaemia infection assessed as survival rate at 64 mg/kg administration starting at 0.5 to 2 hrs post infection and measured after 5 days relative to control; format: functional; settings: 120 h, time 5 day
# Pseudomonas aeruginosa [6] = assay: Antibacterial activity against Pseudomonas aeruginosa infected in BalbC mouse model of Septicaemia infection assessed as survival rate at 64 mg/kg administration starting at 0.5 to 2 hrs post infection and measured after 6 days relative to control; format: functional; settings: 144 h, time 6 day
# Pseudomonas aeruginosa [7] = assay: Antibacterial activity against Pseudomonas aeruginosa infected in BalbC mouse model of Septicaemia infection assessed as survival rate at 64 mg/kg administration starting at 0.5 to 2 hrs post infection and measured after 7 days relative to control; format: functional; settings: 168 h, time 7 day
# Pseudomonas aeruginosa [8] = assay: Antibacterial activity against Pseudomonas aeruginosa infected in BalbC mouse model of Septicaemia infection assessed as survival rate at 128 mg/kg administration starting at 0.5 to 2 hrs post infection and measured after 1 day relative to control; format: functional; settings: 24 h
# Pseudomonas aeruginosa [9] = assay: Antibacterial activity against Pseudomonas aeruginosa infected in BalbC mouse model of Septicaemia infection assessed as survival rate at 128 mg/kg administration starting at 0.5 to 2 hrs post infection and measured after 2 days relative to control; format: functional; settings: 48 h, time 2 day
# Pseudomonas aeruginosa [10] = assay: Antibacterial activity against Pseudomonas aeruginosa infected in BalbC mouse model of Septicaemia infection assessed as survival rate at 128 mg/kg administration starting at 0.5 to 2 hrs post infection and measured after 3 days relative to control; format: functional; settings: 72 h, time 3 day
# Pseudomonas aeruginosa [11] = assay: Antibacterial activity against Pseudomonas aeruginosa infected in BalbC mouse model of Septicaemia infection assessed as survival rate at 128 mg/kg administration starting at 0.5 to 2 hrs post infection and measured after 4 days relative to control; format: functional; settings: 96 h, time 4 day
# Pseudomonas aeruginosa [12] = assay: Antibacterial activity against Pseudomonas aeruginosa infected in BalbC mouse model of Septicaemia infection assessed as survival rate at 128 mg/kg administration starting at 0.5 to 2 hrs post infection and measured after 5 days relative to control; format: functional; settings: 120 h, time 5 day
# Pseudomonas aeruginosa [13] = assay: Antibacterial activity against Pseudomonas aeruginosa infected in BalbC mouse model of Septicaemia infection assessed as survival rate at 128 mg/kg administration starting at 0.5 to 2 hrs post infection and measured after 6 days relative to control; format: functional; settings: 144 h, time 6 day
# [14] = Plasma protein binding in mouse at 1 uM incubated for 6 hrs by LC-MS/MS analysis; format: ADME, cell-free; settings: read-out: PPB (converted)
# [15] = Stability in human plasma at 1 uM measured upto 120 mins by LC-MS/MS analysis; format: ADME, cell-free; settings: 2 h
# J774.A1 = assay: Cytotoxicity against mouse J774.A1 cells at upto 300 ug/ml relative to control; format: toxicity, cell-based; settings: up to 300 µg/mL
# [16] = Cytotoxicity against mouse BALB/3T3 clone A31 cells at upto 300 ug/ml relative to control; format: toxicity, cell-based; settings: up to 300 µg/mL
# NRK-52E = assay: Cytotoxicity against rat NRK-52E cells at upto 300 ug/ml relative to control; format: toxicity, cell-based; settings: up to 300 µg/mL
# H9c2 = assay: Cytotoxicity against rat H9c2 cells at upto 300 ug/ml relative to control; format: toxicity, cell-based; settings: up to 300 µg/mL
# THP-1 = assay: Cytotoxicity against human THP-1 cells at upto 300 ug/ml relative to control; format: toxicity, cell-based; settings: up to 300 µg/mL
# H9 = assay: Cytotoxicity against human H9 cells at upto 300 ug/ml relative to control; format: toxicity, cell-based; settings: up to 300 µg/mL
# [17] = Half life in male Sprague-Dawley rat at 2 mg/kg by LC-MS/MS analysis; format: ADME, organism-based; settings: in vivo
# [18] = Clearance in male Sprague-Dawley rat at 2 mg/kg by LC-MS/MS analysis; format: ADME, organism-based; settings: in vivo
# [19] = Volume of distribution in male Sprague-Dawley rat at 2 mg/kg by LC-MS/MS analysis; format: ADME, organism-based; settings: in vivo
# Pseudomonas aeruginosa [20] = assay: Antibacterial activity against Pseudomonas aeruginosa infected in BalbC mouse model of Septicaemia infection assessed as survival rate at 4 mg/kg administered 30 mins post infection and measured after 1 day relative to control; format: functional; settings: 24 h
# Pseudomonas aeruginosa [21] = assay: Antibacterial activity against Pseudomonas aeruginosa infected in BalbC mouse model of Septicaemia infection assessed as survival rate at 4 mg/kg administered 30 mins post infection and measured after 2 days relative to control; format: functional; settings: 48 h, time 2 day
# Pseudomonas aeruginosa [22] = assay: Antibacterial activity against Pseudomonas aeruginosa infected in BalbC mouse model of Septicaemia infection assessed as survival rate at 4 mg/kg administered 30 mins post infection and measured after 3 days relative to control; format: functional; settings: 72 h, time 3 day
# Pseudomonas aeruginosa [23] = assay: Antibacterial activity against Pseudomonas aeruginosa infected in BalbC mouse model of Septicaemia infection assessed as survival rate at 4 mg/kg administered 30 mins post infection and measured after 4 days relative to control; format: functional; settings: 96 h, time 4 day
# Pseudomonas aeruginosa [24] = assay: Antibacterial activity against Pseudomonas aeruginosa infected in BalbC mouse model of Septicaemia infection assessed as survival rate at 4 mg/kg administered 30 mins post infection and measured after 5 days relative to control; format: functional; settings: 120 h, time 5 day
# Pseudomonas aeruginosa [25] = assay: Antibacterial activity against Pseudomonas aeruginosa infected in BalbC mouse model of Septicaemia infection assessed as survival rate at 4 mg/kg administered 30 mins post infection and measured after 6 days relative to control; format: functional; settings: 144 h, time 6 day
# Pseudomonas aeruginosa [26] = assay: Antibacterial activity against Pseudomonas aeruginosa infected in BalbC mouse model of Septicaemia infection assessed as survival rate at 4 mg/kg administered 30 mins post infection and measured after 7 days relative to control; format: functional; settings: 168 h, time 7 day
# Pseudomonas aeruginosa [27] = assay: Antibacterial activity against Pseudomonas aeruginosa infected in BalbC mouse model of Septicaemia infection assessed as survival rate at 8 mg/kg administered 30 mins post infection and measured after 1 day relative to control; format: functional; settings: 24 h
# Pseudomonas aeruginosa [28] = assay: Antibacterial activity against Pseudomonas aeruginosa infected in BalbC mouse model of Septicaemia infection assessed as survival rate at 8 mg/kg administered 30 mins post infection and measured after 2 days relative to control; format: functional; settings: 48 h, time 2 day
# Pseudomonas aeruginosa [29] = assay: Antibacterial activity against Pseudomonas aeruginosa infected in BalbC mouse model of Septicaemia infection assessed as survival rate at 8 mg/kg administered 30 mins post infection and measured after 4 days relative to control; format: functional; settings: 96 h, time 4 day
# Pseudomonas aeruginosa [30] = assay: Antibacterial activity against Pseudomonas aeruginosa infected in BalbC mouse model of Septicaemia infection assessed as survival rate at 8 mg/kg administered 30 mins post infection and measured after 6 days relative to control; format: functional; settings: 144 h, time 6 day
# Pseudomonas aeruginosa [31] = assay: Antibacterial activity against Pseudomonas aeruginosa infected in BalbC mouse model of Septicaemia infection assessed as survival rate at 8 mg/kg administered 30 mins post infection and measured after 7 days relative to control; format: functional; settings: 168 h, time 7 day
compound,measurement,setting,value
C[C@H]1[C@H](NC(=O)/C(=N\OC(C)(C)C(=O)O)c2csc(N)n2)C(=O)N1S(=O)(=O)O [AZTREONAM],survival at 64 mg/kg,Pseudomonas aeruginosa [1],100%
same,survival at 64 mg/kg,Pseudomonas aeruginosa [2],60%
same,survival at 64 mg/kg,Pseudomonas aeruginosa [3],60%
same,survival at 64 mg/kg,Pseudomonas aeruginosa [4],60%
same,survival at 64 mg/kg,Pseudomonas aeruginosa [5],60%
same,survival at 64 mg/kg,Pseudomonas aeruginosa [6],60%
same,survival at 64 mg/kg,Pseudomonas aeruginosa [7],60%
same,survival at 128 mg/kg,Pseudomonas aeruginosa [8],100%
same,survival at 128 mg/kg,Pseudomonas aeruginosa [9],90%
same,survival at 128 mg/kg,Pseudomonas aeruginosa [10],90%
same,survival at 128 mg/kg,Pseudomonas aeruginosa [11],90%
same,survival at 128 mg/kg,Pseudomonas aeruginosa [12],90%
same,survival at 128 mg/kg,Pseudomonas aeruginosa [13],90%
Cc1sc(N)nc1/C(=N/O[C@@H](COc1ccc(C(=N)N[C@@H]2CCNC2)cc1)C(=O)O)C(=O)N[C@@H]1C(=O)N(OS(=O)(=O)O)C1(C)C,"fraction unbound at 6 h, 1 µM",[14],0.532
same,Stability,[15],Stable
same,Activity,J774.A1,> 80%
same,Activity,[16],> 80%
same,Activity,NRK-52E,> 80%
same,Activity,H9c2,> 80%
same,Activity,THP-1,> 80%
same,Activity,H9,> 80%
same,half-life,[17],24 min
same,clearance,[18],12.5 mL/min/kg
same,Vd,[19],0.37 L/kg
same,survival at 4 mg/kg,Pseudomonas aeruginosa [20],60%
same,survival at 4 mg/kg,Pseudomonas aeruginosa [21],60%
same,survival at 4 mg/kg,Pseudomonas aeruginosa [22],30%
same,survival at 4 mg/kg,Pseudomonas aeruginosa [23],30%
same,survival at 4 mg/kg,Pseudomonas aeruginosa [24],30%
same,survival at 4 mg/kg,Pseudomonas aeruginosa [25],30%
same,survival at 4 mg/kg,Pseudomonas aeruginosa [26],30%
same,survival at 8 mg/kg,Pseudomonas aeruginosa [27],100%
same,survival at 8 mg/kg,Pseudomonas aeruginosa [28],60%
same,survival at 8 mg/kg,Pseudomonas aeruginosa [29],60%
same,survival at 8 mg/kg,Pseudomonas aeruginosa [30],60%
same,survival at 8 mg/kg,Pseudomonas aeruginosa [31],60%
